# Where “and” joins values, the source holds several entries; their conditions need not be identical. Identical values can stand only once. Entries after “also recorded” stand apart in the source; their conditions may differ. Like-named read-outs stand apart in the source and are kept apart here.
# Legend:
# [1] = system: multidrug resistant FCR-3 strain of P. falciparum; assay: In vitro antiplasmodial activity; type: cell-based, Plasmodium falciparum
# [2] = system: Salmonella typhimurium TA1535/pSK1002; assay: Genotoxicity assay, SOS/umu test; type: cell-based; conditions: for genotoxicity (SOS/umu test): with or without S9 fraction; for induction factor (IF): at non-cytotoxic concentrations with or without S9 fraction
# β-hematin formation = assay: β-hematin inhibition assay; type: biochemical; conditions: screened between 0.44 and 110 μM; for IC50: read-out: β-hematin inhibition activity IC50
# [3] = system: chloroquine sensitive (D6) strain of P. falciparum; assay: In vitro antiplasmodial activity; type: cell-based, Plasmodium falciparum
# [4] = system: multidrug resistant (C235) strain of P. falciparum; assay: In vitro antiplasmodial activity; type: cell-based, Plasmodium falciparum
# Cytotoxicity assay = type: cell-based, African Green Monkey; conditions: African green monkey, VERO cells (kidney epithelial cells)
# VERO cells = assay: Cytotoxicity assay; type: cell-based, African Green Monkey; conditions: for SI (selectivity index): CC50 (cytotoxicity)/IC50 (FCR-3); for CC50: inhibition of 50% of VERO cells survival, 48 h, MTT
# PM2 (plasmepsin II) = PM2 (plasmepsin II) (Plasmodium falciparum, UniProt P46925); assay: Plasmepsin assay; type: biochemical, P. falciparum; conditions: tested at 5 μM
# PM2 (plasmepsin II), sequence (P46925 125-453): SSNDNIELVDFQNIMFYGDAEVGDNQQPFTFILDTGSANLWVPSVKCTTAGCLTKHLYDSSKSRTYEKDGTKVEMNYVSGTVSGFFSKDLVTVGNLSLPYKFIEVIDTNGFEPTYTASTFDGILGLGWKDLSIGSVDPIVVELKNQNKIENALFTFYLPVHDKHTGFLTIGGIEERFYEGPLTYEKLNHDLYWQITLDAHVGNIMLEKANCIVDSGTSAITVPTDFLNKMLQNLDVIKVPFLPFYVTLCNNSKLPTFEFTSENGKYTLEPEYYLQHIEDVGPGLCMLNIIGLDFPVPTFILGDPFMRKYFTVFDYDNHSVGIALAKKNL
# P. berghei ANKA = assay: In vivo antimalarial activity, classical 4-day suppressive test; set-up: species or system Plasmodium berghei (Swiss male mice); conditions: oral 50 mg/kg/day x 4 days; for % Suppression of parasitemia: day 4
# Heme binding studies = conditions: 40% DMSO, 0.02 M HEPES, pH 7.4
# [5] = system: hemozoin formation pathway in D6 culture; assay: Target validation in P. falciparum, heme speciation assay; type: cell-based, Plasmodium falciparum; conditions: increasing concentrations of compound
# [6] = Plasmodium falciparum, FCR3, read-out: FCR-3 IC50, P. falciparum multidrug-resistant strain FCR-3
# [7] = Plasmodium falciparum, D6, 72 h, read-out: Antimalarial activity IC50 D6, chloroquine sensitive strain D6, 72 h
# [8] = Plasmodium falciparum, 72 h, read-out: Antimalarial activity IC50 C235, multidrug-resistant strain C235, 72 h
# [9] = read-out: FCR-3 IC50, P. falciparum multidrug-resistant strain FCR-3
# [10] = read-out: Antimalarial activity IC50 D6, chloroquine sensitive strain D6, 72 h
SMILES,"IC50 [1, 6] [µM]",genotoxicity (SOS/umu test) [2],CC50 at 48 h (Cytotoxicity assay) [µM],SI (selectivity index) (VERO cells),inhibition of PM2 compared to the control (PM2 (plasmepsin II)),"IC50 [1, 9] [µM]",also measured
"Fc1ccc(C2=CCNCC2)cc1 [AM01, 4-(4-fluorophenyl)-1,2,3,6-tetrahydropyridine]",8.2 ± 2,not considered genotoxic,–,–,–,–,–
"O=[N+]([O-])c1ccc(NC2CCNCC2)c(C(F)(F)F)c1 [AM02, 4-(4-nitro-2-trifluoromethylphenyl)aminopiperidine]",4.3 ± 0.9,not considered genotoxic,–,–,–,–,–
"CCN(CC)CCCC(C)Nc1ccnc2cc(Cl)ccc12 (stereo not shown) [CQ, chloroquine, reference compound]",0.13,–,> 50,–,–,–,"IC50 (β-hematin formation): 48.7 ± 2.7 µM; IC50 [3, 7]: 0.014 ± 0.001 µM; IC50 [4, 8]: 0.048 ± 0.004 µM"
"O=[N+]([O-])c1ccc(N2CCN(CCC(O)c3csc4ccc(F)cc34)CC2)c(C(F)(F)F)c1 (stereo not shown) [Compound 14, 1-(5-fluorobenzo[b]thiophen-3-yl)-3-[4-(4-nitro-2-trifluoromethylphenyl)piperazin-1-yl] propan-1-ol]",1.32 ± 0.2,–,> 200,>150,no significant inhibition,–,–
"O=[N+]([O-])c1cc(C(F)(F)F)ccc1N1CCN(CCC(O)c2csc3ccc(F)cc23)CC1 (stereo not shown) [Compound 15, 1-(5-fluorobenzo[b]thiophen-3-yl)-3-[4-(2-nitro-4-trifluoromethylphenyl)piperazin-1-yl] propan-1-ol]",2.23 ± 0.2,–,> 150,>50,–,–,–
"OC(CCN1CCN(c2ccc(C(F)(F)F)cc2)CC1)c1csc2ccc(F)cc12 (stereo not shown) [Compound 16, 1-(5-fluorobenzo[b]thiophen-3-yl)-3-(4-(4-trifluoromethylphenyl)piperazin-1-yl) propan-1-ol]",1.68 ± 0.6,–,> 250,>100,no significant inhibition,–,–
"O=[N+]([O-])c1ccc(N2CCCN(CCC(O)c3csc4ccc(F)cc34)CC2)c(C(F)(F)F)c1 (stereo not shown) [Compound 17, 1-(5-fluorobenzo[b]thiophen-3-yl)-3-[4-(4-nitro-2-trifluoromethylphenyl)-1,4-diazepan-1-yl]propan-1-ol]",< 1,–,13.3,18,no significant inhibition,0.75 ± 0.02,–
O=[N+]([O-])c1ccc(N2CCC(NCCC(O)c3csc4ccc(F)cc34)CC2)c(C(F)(F)F)c1 (stereo not shown) [Compound 18],–,–,–,–,no significant inhibition,0.7 ± 0.1,CC50 (VERO cells): 6.3 µM
"OC(CCN1CC=C(c2ccc(F)cc2)CC1)c1ccc2ccccc2c1 (stereo not shown) [Compound 19, 3-[4-(4-fluorophenyl)-3,6-dihydropyridin-1(2H)-yl]-1-(naphthalen-2-yl)propan-1-ol]",14 ± 3.5,–,24.6,1.75,–,–,–
"OC(CCN1CC=C(c2ccc(F)cc2)CC1)c1ccc(C(F)(F)F)cc1 (stereo not shown) [Compound 20, 3-[4-(4-fluorophenyl)-3,6-dihydropyridin-1(2H)-y])-1-(4-(trifluoromethylphenyl)propan-1-ol]",–,–,–,–,–,5.6 ± 2.3,CC50 (VERO cells): > 350 µM
OC(CCN1CCN(c2ccc(C(F)(F)F)cc2)CC1)c1ccc(F)c2ccccc12 (stereo not shown) [Compound 21],–,–,–,–,–,0.93 ± 0.7,CC50 (VERO cells): > 100 µM
"O=[N+]([O-])c1ccc(N2CCC(NCCC(O)c3ccc(F)c4ccccc34)CC2)c(C(F)(F)F)c1 (stereo not shown) [Compound 22, 1-(4-Fluoronaphthalen-1-yl)-3-((1-(4-nitro-2-(trifluoromethyl)phenyl)piperidin-4-yl)amino) propan-1-ol]",–,absence of genotoxicity; also recorded: not considered genotoxic,5.5,37,no significant inhibition,–,"MSD (mean survival time) (P. berghei ANKA; P. berghei-infected mice): > 35 days; cure / survival of treated mice (P. berghei ANKA; P. berghei-infected mice): complete cure; % Suppression of parasitemia (P. berghei ANKA; P. berghei-infected mice, 50 mg/kg/day): 98 ± 1% and 98%; signs of toxicity in treated mice (P. berghei ANKA): no signs of toxicity; IC50 (β-hematin formation): 80.7 ± 1.7 µM; induction factor (IF) [2]: lower than 2; IC50 [3, 7]: ≤ 0.19 µM; IC50 [3, 10]: 0.11 ± 0.01 µM; affinity for the μ-oxo dimer form of heme (binding curve) (Heme binding studies): affinity resembling that of chloroquine; levels of free heme and hemozoin [5]: remained constant"
"OC(CCN1CC=C(c2ccc(F)cc2)CC1)c1ccc(F)c2ccccc12 (stereo not shown) [Compound 23, 1-(4-Fluoronaphthalen-1-yl)-3-[4-(4-fluorophenyl)-3,6-dihydropyridin-1(2H)-yl] propan-1-ol]",–,absence of genotoxicity; also recorded: not considered genotoxic,49.5,124,no significant inhibition,–,"MSD (mean survival time) (P. berghei ANKA; P. berghei-infected mice): 9 days; % Suppression of parasitemia (P. berghei ANKA; P. berghei-infected mice): 73 ± 16%; β-hematin inhibition activity IC50 (β-hematin formation): Not active; induction factor (IF) [2]: lower than 2; IC50 [3, 7]: ≤ 0.19 µM; IC50 [3, 10]: 0.19 ± 0.04 µM; IC50 [4, 8]: ≤ 0.28 µM; IC50 ([4]; read-out: Antimalarial activity IC50 C235, multidrug-resistant strain C235, 72 h): 0.28 ± 0.05 µM"
"O=[N+]([O-])c1ccc(N2CCN(CCC(O)c3ccc(F)cc3)CC2)c(C(F)(F)F)c1 (stereo not shown) [Compound 24, 1-(4-fluorophenyl)-3-[4-(4-nitro-2-trifluoromethylphenyl)piperazin-1-yl]propan-1-ol]",–,absence of genotoxicity; also recorded: not considered genotoxic,88,244,no significant inhibition,–,MSD (mean survival time) (P. berghei ANKA; P. berghei-infected mice): 8 days; % Suppression of parasitemia (P. berghei ANKA; P. berghei-infected mice): 17 ± 8%; induction factor (IF) [2]: lower than 2
"OC(CCN1CC=C(c2ccc(F)cc2)CC1)c1ccc(F)cc1 (stereo not shown) [Compound 26, 1-(4-fluorophenyl)-3-[4-(4-fluorophenyl)-3,6-dihydropyridin-1(2H)-yl]propan-1-ol]",< 1,–,> 100,>150,–,0.66 ± 0.01,–
"COc1cccc2c1C(=O)c1c(O)c3c(c(O)c1C2=O)C[C@@](O)(C(=O)CO)C[C@@H]3O[C@H]1C[C@H](N)[C@H](O)[C@H](C)O1 [Doxorubicin, reference compound]",–,–,6.4,–,–,–,–

# From publication PMC5061469 (International Journal for Parasitology: Drugs and Drug …, 2016)
